# Results published in patent US6329497A, “Sandramycin analogs” (The Scripps Research Institute, priority 1999, dated 2001).
# “Also recorded” adds a separate entry of the source. Like-named read-outs stand apart in the source and are kept apart here.
# Assays:
# [1] = test system: calf thymus DNA and 5'-d(GCATGC)2; assay: DNA binding affinity trends over calf thymus DNA and 5'-d(GCATGC)2 (fluorescence quenching)
# Description: (§1) Apparent absolute DNA binding constants for 1-22 and related agents including luzopeptin A were obtained by measurement of the fluorescence quenching upon titration addition of calf thymus DNA or the deoxyoligonucleotides 5'-d(GCXXGC)2 where XX=AT, TA, GC, and CG. For each agent, the characteristic fluorescence excitation and emission spectra were recorded in 10 mM Tris-HCl, 75 mM NaCl (pH 7.4) buffer, FIG. 6. For the DNA binding assays which quantitate the fluorescence quenching, excitation outside the absorbance range of DNA was employed and the most intense fluorescence emission at a longer wavelength monitored. For assay of the DNA-induced fluorescence quenching of the agents, a 2 mL buffer solution of Tris-HCl (pH 7.4) and 75 mM NaCl was employed. For titration, small aliquots of DNA were added to solutions of the agents in Tris-HCl buffer (pH 7.4).
# (§2) Despite these precautions, the fluorescence for a number of the analog solutions decreased for several of analogs (11, 14, 17, 21 and 22) and the quality of the binding constants for these should be viewed with caution. […] The titrations were carried out with 15 min time intervals between DNA additions to allow binding equilibration. […] The titration fluorescence quenching was analyzed by Scatchard analysis (Scatchard, G. Ann. N. Y. Acad. Sci. 1949, 51, 660) with the following equation: rb /c=Kb n-Kb rb where rb is the number of agent molecules bound per DNA base-pair, c is the free drug concentration, Kb is the apparent association constant, and n is the number of agent binding sites per base-pair.
# A pronounced downward curvature in an infinite lattice such as calf thymus DNA is recognized to arise in part from neighbor exclusion where the binding of an agent excludes the subsequent binding at nearby sites. This exclusion manifests itself in the plot by a reduction in the apparent binding constant as the DNA lattice approaches saturation and the probability of finding a free site is diminished. In the calf thymus DNA studies, the binding also entails multiple classes of independent binding sites or modes. For simplicity, a linear fit of the high affinity binding sites was used to determine the binding constant attributable to bis-intercalation. For the deoxyoligonucleotides, the curvature can be more simply attributed to multiple classes of independent binding sites or binding modes. There are a number of mathematical methods to deconvolute the curved plot into such individual binding events. In the deoxyoligonucleotide studies, a non-linear fit described by Feldman was also used to deconvolute the curves. The model assumes one ligand with two binding types or sites. Since the number of binding sites is limited, we have interpreted this to indicate a high affinity bis-intercalation and a lower affinity binding potentially involving mono-intercalation. The formula was fit using the JMP^22 statistical fitting program using an initial approximation of the two n values and fitting for K1 and K2.
# After 5 min of stirring, an initial fluorescence reading was taken with minimum exposure to the excitation beam. […] The excitation and emission wavelengths used for each analog varied and can be found in FIG. 6. The results of the titration were analyzed by Scatchard analysis. The linear portion of the Scatchard plot was used to determine the high affinity binding constants. In the case of the deoxyoligonucleotide study, a non-linear fit of the curve as described in the text was also used to determine the high affinity binding constant (Feldman, H. A. Anal. Biochem. 1972, 48, 317).
# [2] = Solubility of the agents in assay buffer / water; type: physicochemical; settings: aqueous Tris-HCl/NaCl buffer pH 7.4
# [3] = target: T1, HIV-1 reverse transcriptase (Human immunodeficiency virus type 1 group M subtype B, UniProt P04585); assay: Inhibition of HIV-1 reverse transcriptase; type: biochemical
# Description: The assay was performed according to an available procedure (Goldman, M. E.; Salituro, G. S.; Bowen, J. A.; Williamson, J. M.; Zink, D. L.; Schleif, W. A.; Emini, E. A. Mol. Pharmacol. 1990, 38, 20) with slight modification. A 45 L solution of reaction buffer containing 55 mM Tris·HCl, pH 8.2, 80 mM potassium chloride, 12 mM MgCl2, 1 mM DTT, 50 M EGTA, 2.5 g/mL rA·dT, 0.5 Ci of [^3 H]TTP, 10 M TTP, 1 mg/mL BSA, and 0.01% Triton X-100 was added to a well in a filter cluster plate (Millipore MAHV N45). The reverse transcription reaction was initiated upon addition of the reverse transcriptase (1 unit; 1 unit=10 pmol of [^3 H]TMP incorporated/60 min at 37° C.). The plate was incubated at 37° C. for 90 min. The plate was then placed on ice and 200 µL of 13% trichloroacetic acid and 10 mM sodium pyrophosphate was added to each well. The plate was chilled for 2 h and the liquid vacuumed out through the filter using a Millipore manifold (Millipore MAVM 09601). The precipitate was washed with 1 M and 10 mM sodium pyrophosphate twice. The filter was punched out and placed in a scintillation vial. 4 mL of cocktail was added. Radioactivity was determined by liquid scintillation counting.
# The effects of sandramycin and its analogs on HIV-1 reverse transcriptase were determined by incubating the agents and the rA·dT containing buffer at 25° C. for 30 min prior to addition of the reverse transcriptase. Reactions containing no agents were used as controls, and those lacking the transcriptase were used as blanks.
# L1210 cell line = assay: In vitro cytotoxic activity, L1210; type: cell-based
# 5'-d(GCATGC)2 = assay: DNA binding by fluorescence quenching, 5'-d(GCATGC)2; settings: for DNA binding affinity, in words: 5'-d(GCATGC)2, relative to 1 and 4
# Description: as §1, §2
# A pronounced downward curvature in an infinite lattice such as calf thymus DNA is recognized to arise in part from neighbor exclusion where the binding of an agent excludes the subsequent binding at nearby sites. This exclusion manifests itself in the plot by a reduction in the apparent binding constant as the DNA lattice approaches saturation and the probability of finding a free site is diminished. In the calf thymus DNA studies, the binding also entails multiple classes of independent binding sites or modes. […]
# calf thymus DNA [4] = settings: cited from earlier work
# calf thymus DNA [5] = assay: DNA binding constants by fluorescence quenching, calf thymus DNA
# Description: as §1, with “For titration, small aliquots of DNA were added to solutions of the agents in Tris-HCl buffer (pH 7.4).” left out
# Despite these precautions, the fluorescence for a number of the analog solutions decreased for several of analogs (11, 14, 17, 21 and 22) and the quality of the binding constants for these should be viewed with caution. […] The titration fluorescence quenching was analyzed by Scatchard analysis (Scatchard, G. Ann. N. Y. Acad. Sci. 1949, 51, 660) with the following equation: rb /c=Kb n-Kb rb where rb is the number of agent molecules bound per DNA base-pair, c is the free drug concentration, Kb is the apparent association constant, and n is the number of agent binding sites per base-pair. […]
# [6] = target: T1, HIV-1 reverse transcriptase; settings: cited from earlier work
compound,measurement,setting,value
"CC(C)[C@H]1C(=O)OC[C@@H](NC(=O)c2cc3ccccc3cc2O)C(=O)N2CCCC[C@H]2C(=O)NCC(=O)N(C)CC(=O)N(C)[C@@H](C(C)C)C(=O)OC[C@@H](NC(=O)c2cc3ccccc3cc2O)C(=O)N2CCCC[C@H]2C(=O)NCC(=O)N(C)CC(=O)N1C [compound 5, (N-(3-Hydroxynaphthyl-2-carbonyl)-D-Ser-Pip-Gly-Sar-NMe-Val)2(Serine Hydroxyl) Dilactone]","DNA binding affinity, in words",[1],substantially less effective than all agents in the series
same,solubility in the fluorescence quenching assay,[2],not sufficiently soluble; also recorded: limited solubility
same,"HIV-1 reverse transcriptase inhibition, in words",[3],much less effective
same,"cytotoxic potency, fold less potent than 1",L1210 cell line,10000
"CC(C)C1C(=O)OCC(NC(=O)c2cnc3ccccc3n2)C(=O)N2CCCCC2C(=O)NCC(=O)N(C)CC(=O)N(C)C(C(C)C)C(=O)OCC(NC(=O)c2cnc3ccccc3n2)C(=O)N2CCCCC2C(=O)NCC(=O)N(C)CC(=O)N1C [compound 18, (N-(Quinoxalyl-2-carbonyl)-D-Ser-Pip-Gly-Sar-NMe-Val)2 (Serine Hydroxyl) Dilactone]",solubility in the fluorescence quenching assay,[2],not sufficiently soluble; also recorded: limited solubility
same,"HIV-1 reverse transcriptase inhibition, in words",[3],roughly maintain the HIV-1 reverse transcriptase inhibitory potency of 1; also recorded: Comparable but slightly less potent inhibition
same,fold less potent than sandramycin,[3],3
same,"cytotoxic potency, fold less potent than 4",L1210 cell line,approximately 10
same,"cytotoxic potency, fold less potent than 13",L1210 cell line,approximately 10
same,"cytotoxic potency, fold more potent than 19",L1210 cell line,300
(N-(Iso-quinolinyl-3-carbonyl)-D-Ser-Pip-Gly-Sar-NMe-Val)2 (Serine Hydroxyl) Dilactone [compound 21],"DNA binding affinity, in words",[1],comparable to that of the monointercalator 24
same,"HIV-1 reverse transcriptase inhibition, in words",[3],much less effective
same,"DNA binding affinity, in words",5'-d(GCATGC)2,substantially less effective
CC[n+]1c(-c2ccccc2)c2cc(N)ccc2c2ccc(N)cc21 [ethidium bromide],binding constant employed to calculate the absolute binding constant,calf thymus DNA [4],450000 M⁻¹
(N-(Isoquinolinyl-1-carbonyl)-D-Ser-Pip-Gly-Sar-NMe-Val)2 (Serine Hydroxyl) Dilactone [compound 22],"DNA binding affinity, in words",calf thymus DNA [5],comparable to 4
same,"DNA binding affinity, in words",[1],comparable to that of the monointercalator 24
same,"HIV-1 reverse transcriptase inhibition, in words",[3],much less effective
same,"DNA binding affinity, in words",5'-d(GCATGC)2,substantially less effective
COc1ccc2nc(C(=O)N[C@@H]3COC(=O)[C@H](C(C)(C)O)N(C)C(=O)CN(C)C(=O)CNC(=O)[C@@H]4[C@@H](OC(=O)[C@@H]5C[C@H]5C)CC=NN4C(=O)[C@H](NC(=O)c4cnc5cc(OC)ccc5n4)COC(=O)[C@H](C(C)(C)O)N(C)C(=O)CN(C)C(=O)CNC(=O)[C@@H]4C(OC(C)=O)CC=NN4C3=O)cnc2c1 (stereo partly shown) [quinoxapeptin B],fold less potent than quinoxapeptin A and luzopeptin A,[6],approximately 2
CC(C)[C@H]1C(=O)OC[C@@H](NC(=O)c2ccc3ccccc3c2)C(=O)N2CCCC[C@H]2C(=O)NCC(=O)N(C)CC(=O)N(C)[C@@H](C(C)C)C(=O)OC[C@@H](NC(=O)c2ccc3ccccc3c2)C(=O)N2CCCC[C@H]2C(=O)NCC(=O)N(C)CC(=O)N1C [compound 7],"DNA binding affinity, in words",[1],substantially less effective than all agents in the series
same,solubility in the fluorescence quenching assay,[2],not sufficiently soluble; also recorded: limited solubility
same,"HIV-1 reverse transcriptase inhibition, in words",[3],much less effective
same,"cytotoxic potency, fold less potent than 4",L1210 cell line,2000
same,"cytotoxic potency, fold less potent than 5",L1210 cell line,2
"COc1ccc2nc(C(=O)N[C@@H]3COC(=O)[C@H](C(C)(C)O)N(C)C(=O)CN(C)C(=O)CNC(=O)[C@@H]4[C@@H](OC(C)=O)CC=NN4C(=O)[C@H](NC(=O)c4nc5ccc(OC)cc5cc4O)COC(=O)[C@H](C(C)(C)O)N(C)C(=O)CN(C)C(=O)CNC(=O)[C@@H]4[C@@H](OC(C)=O)CC=NN4C3=O)c(O)cc2c1 [luzopeptin A, reference compound]",fold higher than values reported elsewhere,[3],20-30
same,IC50,[3]; range given for both agents,130 to 190 nM
same,IC50,[6]; read-out: IC50 reported elsewhere,7 nM
CC(C)C1C(=O)OCC(NC(=O)c2ncccc2O)C(=O)N2CCCCC2C(=O)NCC(=O)N(C)CC(=O)N(C)C(C(C)C)C(=O)OCC(NC(=O)c2ncccc2O)C(=O)N2CCCCC2C(=O)NCC(=O)N(C)CC(=O)N1C (stereo not shown) [compound 8],drop in DNA binding affinity,calf thymus DNA [5]; removal of fused benzene ring,1.7 kcal/mol
same,"HIV-1 reverse transcriptase inhibition, in words",[3],much less effective
same,drop in DNA binding affinity,"5'-d(GCATGC)2; 5'-d(GCATGC)2, removal of fused benzene ring",2.3 to 2.6 kcal/mol
same,"cytotoxic potency, fold less potent than 1",L1210 cell line,4000
